Measurements reported in patent US9409952B2, “Peptide-compound cyclization method” (Chugai Seiyaku Kabushiki Kaisha, priority 2011, dated 2016).
Starred links: 1 amine or outer side, 2 acyl side, 3 side chain; linkers in the order of their positions; H or OH if unused. Positions of bridges follow the written chain, without caps; N, C: chain ends. Non-standard residues stand in square brackets, D forms with d. Residues, ends and D or L forms follow the SMILES beside them. *: point of attachment. NMeF = CN[C@@H](Cc1ccccc1)C(=O)O; NMeGABA = CN(CCCC(=O)[*:2])[*:1]; NMeβAla = CN(CCC(=O)[*:2])[*:1]; NMeL = CN[C@@H](CC(C)C)C(=O)O; NMeV = CN[C@H](C(=O)O)C(C)C; NMeA = CN[C@@H](C)C(=O)O; Piperidide = C1CCN(*)CC1; dNMeA = CN[C@H](C)C(=O)O; Sar = CNCC(=O)O

Legend:
[1] = PAMPA (parallel artificial membrane permeability assay); assay type: in vitro ADME; settings: PAMPA; membrane permeation rate (Pe); 50 mM MOPSO buffer pH 6.5 with 5.0% glycocholic acid, 37° C., 18 hours; read-out: iPAMPA Pe
Procedure, shortened: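 Artificial membrane was 10% (w/v) egg lecithin plus 0.5% (w/v) cholesterol in dodecane on a PVDF filter. A 10 mM DMSO stock was added at 0.5% (v/v) to donor buffer (50 mM MOPSO, pH 6.5, 5.0% glycocholic acid). After 18 h at 37 °C, LC/MS or LC/UV gave donor and acceptor levels for Pe.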

[2] = Metabolic stability in human hepatic microsome; assay type: in vitro ADME; settings: microsomes, pH 7.4; human hepatic microsome, NADPH(+); read-out: CL NADPH(+)

Row | Structure (SMILES) | Papp at 18 hours, 50 µM [1] [×10⁻⁶ cm/s] | microsomal CLint at 1 uM [2] [µL/min/mg]
1 | CC[C@H](C)[C@@H]1NC(=O)[C@H](C)N(C)C(=O)[C@H](CC(C)C)N(C)C(=O)CCCN(C)C(=O)C[C@@H](C(=O)N2CCCCC2)NC(=O)[C@H](C)N(C)C(=O)[C@H](Cc2ccccc2)N(C)C(=O)[C@H]([C@@H](C)O)NC(=O)[C@H](Cc2ccccc2)N(C)C(=O)[C@H](CC(C)C)N(C)C1=O [DP-487] ([NMeGABA][NMeL][NMeA]I[NMeL][NMeF]T[NMeF][NMeA]D-Piperidide; lactam N-10) | 24 | 386
2 | CC(C)C[C@H]1C(=O)N(C)[C@@H](C)C(=O)N(C)[C@@H](CC(C)C)C(=O)N[C@H](C(=O)N2CCCCC2)CC(=O)N(C)[C@@H](C)C(=O)N(C)[C@@H](Cc2ccccc2)C(=O)N[C@@H]([C@@H](C)O)C(=O)N(C)[C@@H](C)C(=O)N(C)[C@@H](CC(C)C)C(=O)NCC(=O)N1C [DP-489] ([NMeA][NMeF]T[NMeA][NMeL]G[NMeL][NMeA][NMeL]D-Piperidide; lactam N-10) | 24 | 59
3 | CC[C@H](C)[C@@H]1NC(=O)[C@H](CC(C)C)N(C)C(=O)[C@H](C)N(C)C(=O)[C@H]([C@@H](C)O)NC(=O)[C@H](C)N(C)C(=O)[C@H](C(C)C)N(C)C(=O)[C@H](Cc2ccccc2)NC(=O)CCN(C)C(=O)C[C@@H](C(=O)N(C)[C@@H](Cc2ccccc2)C(=O)N[C@@H](C)C(=O)N2CCCCC2)NC(=O)[C@H](C)N(C)C1=O [DP-490] ([NMeβAla]F[NMeV][NMeA]T[NMeA][NMeL]I[NMeA]D[NMeF]A-Piperidide; lactam N-10) | 11 | 27
4 | CC[C@H](C)[C@@H]1NC(=O)[C@@H](C)NC(=O)C[C@@H](C(=O)N(C)[C@@H](Cc2ccccc2)C(=O)N[C@@H](C)C(=O)N2CCCCC2)NC(=O)[C@H](Cc2ccccc2)N(C)C(=O)[C@H](C)NC(=O)[C@H](CC(C)C)N(C)C(=O)[C@H](C)N(C)C(=O)[C@H]([C@@H](C)O)NC(=O)[C@H](C(C)C)N(C)C(=O)[C@H](C)N(C)C1=O [DP-491] ([dA]I[NMeA][NMeV]T[NMeA][NMeL]A[NMeF]D[NMeF]A-Piperidide; lactam N-10) | 18 | 39
5 | CC[C@H](C)[C@@H]1NC(=O)[C@H](Cc2ccccc2)N(C)C(=O)[C@H](C)N(C)C(=O)[C@H]([C@@H](C)O)NC(=O)[C@H](CC(C)C)N(C)C(=O)[C@H](C)N(C)C(=O)C[C@@H](C(=O)N(C)[C@@H](Cc2ccccc2)C(=O)N[C@@H](C)C(=O)N2CCCCC2)NC(=O)[C@H](C(C)C)N(C)C(=O)[C@H](CC(C)C)N(C)C(=O)CN(C)C1=O [DP-492] ([NMeA][NMeL]T[NMeA][NMeF]I[Sar][NMeL][NMeV]D[NMeF]A-Piperidide; lactam N-10) | 20 | 61
6 | CC(C)C[C@H]1C(=O)N(C)[C@@H](CC(C)C)C(=O)N(C)[C@@H](Cc2ccccc2)C(=O)N(C)[C@@H](CC(C)C)C(=O)N[C@H](C(=O)N(C)[C@@H](Cc2ccccc2)C(=O)N[C@@H](C)C(=O)N2CCCCC2)CC(=O)N(C)CC(=O)N[C@@H]([C@@H](C)O)C(=O)N(C)[C@@H](Cc2ccccc2)C(=O)N(C)[C@@H](CC(C)C)C(=O)N[C@@H](C)C(=O)N1C [DP-493] ([Sar]T[NMeF][NMeL]A[NMeL][NMeL][NMeF][NMeL]D[NMeF]A-Piperidide; lactam N-10) | 2.4 | 52
7 | CC[C@H](C)[C@@H]1NC(=O)CCN(C)C(=O)C[C@@H](C(=O)N(C)[C@@H](Cc2ccccc2)C(=O)N(C)[C@@H](Cc2ccccc2)C(=O)N[C@@H](C)C(=O)N2CCCCC2)NC(=O)[C@H](C(C)C)N(C)C(=O)[C@H](C)NC(=O)[C@H](CC(C)C)N(C)C(=O)CN(C)C(=O)[C@H]([C@@H](C)O)NC(=O)[C@H](C)N(C)C(=O)[C@H](Cc2ccccc2)N(C)C1=O [DP-495] ([NMeβAla]I[NMeF][NMeA]T[Sar][NMeL]A[NMeV]D[NMeF][NMeF]A-Piperidide; lactam N-10) | 21 | 7
8 | CC[C@H](C)[C@@H]1NC(=O)[C@H](CC(C)C)N(C)C(=O)CCN(C)C(=O)C[C@@H](C(=O)N(C)[C@@H](Cc2ccccc2)C(=O)N(C)[C@@H](Cc2ccccc2)C(=O)N[C@@H](C)C(=O)N2CCCCC2)NC(=O)[C@H](C(C)C)N(C)C(=O)[C@H](CC(C)C)N(C)C(=O)CN(C)C(=O)[C@H]([C@@H](C)O)NC(=O)[C@H](Cc2ccccc2)NC(=O)[C@H](C(C)C)N(C)C1=O [DP-496] ([NMeβAla][NMeL]I[NMeV]FT[Sar][NMeL][NMeV]D[NMeF][NMeF]A-Piperidide; lactam N-10) | 23 | 13
9 | CC(C)C[C@H]1C(=O)N(C)[C@@H](C(C)C)C(=O)N(C)[C@@H](C)C(=O)N[C@H](C(=O)N(C)[C@@H](Cc2ccccc2)C(=O)N(C)[C@@H](Cc2ccccc2)C(=O)N[C@@H](C)C(=O)N2CCCCC2)CC(=O)N(C)CCC(=O)N(C)CC(=O)N[C@@H]([C@@H](C)O)C(=O)N[C@@H](Cc2ccccc2)C(=O)N(C)[C@@H](C(C)C)C(=O)N[C@@H](C)C(=O)N1C [DP-497] ([NMeβAla][Sar]TF[NMeV]A[NMeL][NMeV][NMeA]D[NMeF][NMeF]A-Piperidide; lactam N-10) | 9.3 | 58
10 | CC[C@H](C)[C@@H]1NC(=O)[C@H](Cc2ccccc2)N(C)C(=O)[C@H](C)N(C)C(=O)CN(C)C(=O)[C@H]([C@@H](C)O)NC(=O)[C@H](C)N(C)C(=O)[C@H](C(C)C)N(C)C(=O)[C@H](C)NC(=O)CCN(C)C(=O)C[C@@H](C(=O)N(C)[C@@H](Cc2ccccc2)C(=O)N(C)[C@@H](Cc2ccccc2)C(=O)N[C@@H](C)C(=O)N2CCCCC2)NC1=O [DP-498] ([NMeβAla]A[NMeV][NMeA]T[Sar][NMeA][NMeF]ID[NMeF][NMeF]A-Piperidide; lactam N-10) | 2.7 | 9
11 | CC(C)C[C@H]1C(=O)N(C)[C@@H](C)C(=O)N[C@@H]([C@@H](C)O)C(=O)N(C)[C@@H](C)C(=O)N[C@H](C(=O)N(C)[C@@H](Cc2ccccc2)C(=O)N(C)[C@@H](Cc2ccccc2)C(=O)N[C@@H](C)C(=O)N2CCCCC2)CC(=O)N(C)CCC(=O)N(C)[C@@H](Cc2ccccc2)C(=O)N(C)[C@@H](CC(C)C)C(=O)N(C)[C@@H](C)C(=O)N[C@@H](C(C)C)C(=O)N1C [DP-500] ([NMeβAla][NMeF][NMeL][NMeA]V[NMeL][NMeA]T[NMeA]D[NMeF][NMeF]A-Piperidide; lactam N-10) | 27 | 28
12 | CC(C)C[C@H]1C(=O)N(C)[C@@H](C(C)C)C(=O)N[C@@H](Cc2ccccc2)C(=O)N[C@H](C(=O)N(C)[C@@H](Cc2ccccc2)C(=O)N(C)[C@@H](Cc2ccccc2)C(=O)N[C@@H](C)C(=O)N2CCCCC2)CC(=O)N[C@H](C)C(=O)N[C@@H](C(C)C)C(=O)N(C)[C@@H](CC(C)C)C(=O)N[C@@H]([C@@H](C)O)C(=O)N(C)[C@@H](Cc2ccccc2)C(=O)NCC(=O)N1C [DP-501] ([dA]V[NMeL]T[NMeF]G[NMeL][NMeV]FD[NMeF][NMeF]A-Piperidide; lactam N-10) | 0.23 | 7
13 | CC[C@H](C)[C@@H]1NC(=O)[C@H](C)N(C)C(=O)[C@H](CC(C)C)N(C)C(=O)CN(C)C(=O)[C@H]([C@@H](C)O)NC(=O)[C@H](C(C)C)N(C)C(=O)[C@H](C)N(C)C(=O)[C@H](Cc2ccccc2)NC(=O)[C@@H](C)NC(=O)C[C@@H](C(=O)N(C)[C@@H](Cc2ccccc2)C(=O)N(C)[C@@H](Cc2ccccc2)C(=O)N[C@@H](C)C(=O)N2CCCCC2)NC1=O [DP-502] ([dA]F[NMeA][NMeV]T[Sar][NMeL][NMeA]ID[NMeF][NMeF]A-Piperidide; lactam N-10) | 17 | 19
14 | CC(C)C[C@H]1C(=O)N[C@@H]([C@@H](C)O)C(=O)N(C)[C@@H](Cc2ccccc2)C(=O)N(C)[C@@H](CC(C)C)C(=O)NCC(=O)N(C)[C@@H](C(C)C)C(=O)N[C@@H](Cc2ccccc2)C(=O)N[C@H](C(=O)N(C)[C@@H](Cc2ccccc2)C(=O)N(C)[C@@H](Cc2ccccc2)C(=O)N[C@@H](C)C(=O)N2CCCCC2)CC(=O)N(C)[C@H](C)C(=O)N[C@@H](C(C)C)C(=O)N1C [DP-503] ([dNMeA]V[NMeL]T[NMeF][NMeL]G[NMeV]FD[NMeF][NMeF]A-Piperidide; lactam N-10) | 0.2 | 43
15 | CC(C)[C@@H]1NC(=O)[C@H](Cc2ccccc2)N(C)C(=O)[C@H](C)N(C)C(=O)[C@H]([C@@H](C)O)NC(=O)[C@H](C)N(C)C(=O)CNC(=O)[C@H](Cc2ccccc2)NC(=O)[C@@H](C)N(C)C(=O)C[C@@H](C(=O)N(C)[C@@H](Cc2ccccc2)C(=O)N(C)[C@@H](Cc2ccccc2)C(=O)N[C@@H](C)C(=O)N2CCCCC2)NC(=O)[C@H](C(C)C)N(C)C1=O [DP-504] ([dNMeA]FG[NMeA]T[NMeA][NMeF]V[NMeV]D[NMeF][NMeF]A-Piperidide; lactam N-10) | 31 | 216
16 | CC(C)[C@@H]1NC(=O)[C@H](C)N(C)C(=O)CNC(=O)[C@H]([C@@H](C)O)NC(=O)[C@H](C(C)C)N(C)C(=O)[C@H](C)NC(=O)[C@@H](C)N(C)C(=O)C[C@@H](C(=O)N(C)[C@@H](Cc2ccccc2)C(=O)N(C)[C@@H](Cc2ccccc2)C(=O)N[C@@H](C)C(=O)N2CCCCC2)NC(=O)[C@H](Cc2ccccc2)N(C)C(=O)[C@H](C)N(C)C1=O [DP-505] ([dNMeA]A[NMeV]TG[NMeA]V[NMeA][NMeF]D[NMeF][NMeF]A-Piperidide; lactam N-10) | 6.8 | 18
17 | CC[C@H](C)[C@@H]1NC(=O)[C@H](C)N(C)C(=O)[C@H](C)N(C)C(=O)[C@H]([C@@H](C)O)NC(=O)CN(C)C(=O)[C@H](C(C)C)N(C)C(=O)[C@H](CC(C)C)N(C)C(=O)[C@H](Cc2ccccc2)NC(=O)[C@@H](C)N(C)C(=O)C[C@@H](C(=O)N(C)[C@@H](Cc2ccccc2)C(=O)N(C)[C@@H](Cc2ccccc2)C(=O)N[C@@H](C)C(=O)N2CCCCC2)NC1=O [DP-506] ([dNMeA]F[NMeL][NMeV][Sar]T[NMeA][NMeA]ID[NMeF][NMeF]A-Piperidide; lactam N-10) | 20 | 14
